One experiment has as its target T1, PRMT5/MEP50 complex (Homo sapiens, UniProt O14744).
T1 construct: purchased Reaction Biology Corporation
The experiment is described as follows: PRMT5:MEP50 HotSpot Assay (full-length histone H2A substrate, plus and minus MTA). Type of experiment: biochemical. Particulars: IC50 + 2 μM MTA, in the presence of 2 μM MTA. As to the method:
The PRMT5 inhibitory activity of compounds of the present invention was determined using either a PRMT5:MEP50 FlashPlate Assay (Reaction Biology Corporation) or a PRMT5:MEP50 HotSpot Assay (Reaction Biology Corporation).
The assay uses recombinant full-length hi stone H2A as the PRMT5 substrate. […] The reaction was stopped and transferred to filter paper for detection. The amount of tritiated H2A in each sample was determined using a scintillation counter.
T1 sequence (O14744 2-637 limits assumed): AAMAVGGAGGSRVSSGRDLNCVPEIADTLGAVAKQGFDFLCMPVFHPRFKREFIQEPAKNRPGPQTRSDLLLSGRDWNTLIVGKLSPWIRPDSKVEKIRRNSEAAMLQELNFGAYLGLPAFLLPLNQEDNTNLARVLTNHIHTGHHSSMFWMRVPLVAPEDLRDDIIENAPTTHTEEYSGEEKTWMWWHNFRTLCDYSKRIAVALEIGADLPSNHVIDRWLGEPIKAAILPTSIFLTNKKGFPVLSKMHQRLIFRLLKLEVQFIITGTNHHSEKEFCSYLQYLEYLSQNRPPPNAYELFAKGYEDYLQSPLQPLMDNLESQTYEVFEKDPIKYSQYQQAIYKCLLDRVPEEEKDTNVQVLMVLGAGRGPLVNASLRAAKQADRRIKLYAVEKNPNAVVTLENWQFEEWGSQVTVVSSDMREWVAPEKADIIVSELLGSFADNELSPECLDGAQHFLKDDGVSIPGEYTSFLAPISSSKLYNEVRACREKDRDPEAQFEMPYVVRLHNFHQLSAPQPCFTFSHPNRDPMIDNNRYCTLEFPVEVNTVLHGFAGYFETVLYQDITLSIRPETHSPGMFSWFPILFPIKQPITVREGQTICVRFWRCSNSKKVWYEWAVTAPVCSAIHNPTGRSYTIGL
T1 sequence (Q9BQA1 2-342 partner limits assumed): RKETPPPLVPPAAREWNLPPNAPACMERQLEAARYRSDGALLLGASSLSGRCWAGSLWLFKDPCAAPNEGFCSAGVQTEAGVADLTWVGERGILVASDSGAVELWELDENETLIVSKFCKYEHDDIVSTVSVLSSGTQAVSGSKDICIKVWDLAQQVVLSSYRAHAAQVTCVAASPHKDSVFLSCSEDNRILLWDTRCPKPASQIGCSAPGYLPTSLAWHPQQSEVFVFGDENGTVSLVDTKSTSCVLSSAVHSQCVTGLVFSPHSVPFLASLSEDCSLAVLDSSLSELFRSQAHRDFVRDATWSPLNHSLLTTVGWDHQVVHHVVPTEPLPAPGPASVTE
Regarding `Cn1ncc(-c2ccc3c(=O)[nH]nc(CN)c3c2)c1-c1c(Cl)c(Cl)cc(OC2CC2)c1C#N` (single isomer, unassigned) [Example 16-123, (P)-2-(4-(4-(aminomethyl)-1-oxo-1,2-dihydrophthalazin-6-yl)-1-methyl-1H-pyrazol-5-yl)-3,4-dichloro-6-cyclopropoxybenzonitrile], the IC50 came to 4000 nM.

As for `Cn1ncc(-c2ccc3c(=O)[nH]nc(CN)c3c2)c1-c1c(Cl)c(Cl)cc(OC2CC2)c1C#N` (single isomer, unassigned) [Example 16-124, (M)-2-(4-(4-(aminomethyl)-1-oxo-1,2-dihydrophthalazin-6-yl)-1-methyl-1H-pyrazol-5-yl)-3,4-dichloro-6-cyclopropoxybenzonitrile], the IC50 amounted to 70 nM.

Regarding `Cn1ncc(-c2ccc3c(=O)[nH]nc(CN)c3c2)c1-c1c(F)c(Cl)cc(CC2CC2)c1C#N` (single isomer, unassigned) [Example 16-125, (P)-2-(4-(4-(aminomethyl)-1-oxo-1,2-dihydrophthalazin-6-yl)-1-methyl-1H-pyrazol-5-yl)-4-chloro-6-(cyclopropylmethyl)-3-fluorobenzonitrile], the IC50 amounted to 2950 nM. Still for that read-out and setting: the value for `Cn1ncc(-c2ccc3c(=O)[nH]nc(CN)c3c2)c1-c1c(F)c(Cl)cc(CC2CC2)c1C#N` (single isomer, unassigned) [Example 16-126, (M)-2-(4-(4-(aminomethyl)-1-oxo-1,2-dihydrophthalazin-6-yl)-1-methyl-1H-pyrazol-5-yl)-4-chloro-6-(cyclopropylmethyl)-3-fluorobenzonitrile] was 29 nM; that for `Cn1ncc(-c2ccc3c(=O)[nH]nc(CN)c3c2)c1-c1c(Cl)cc2ccccc2c1C#N` (single isomer, unassigned) [Example 16-127, (P)-2-(4-(4-(aminomethyl)-1-oxo-1,2-dihydrophthalazin-6-yl)-1-methyl-1H-pyrazol-5-yl)-3-chloro-1-naphthonitrile] was 347 nM. Turning to `Cn1ncc(-c2ccc3c(=O)[nH]nc(CN)c3c2)c1-c1c(Cl)cc2ccccc2c1C#N` (single isomer, unassigned) [Example 16-128, (M)-2-(4-(4-(aminomethyl)-1-oxo-1,2-dihydrophthalazin-6-yl)-1-methyl-1H-pyrazol-5-yl)-3-chloro-1-naphthonitrile], the IC50 is 65 nM.

With `Cn1ncc(-c2ccc3c(=O)[nH]nc(CN)c3c2)c1-c1c(C(F)F)cc2ccccc2c1C#N` (single isomer, unassigned) [Example 16-129, (P)-2-(4-(4-(aminomethyl)-1-oxo-1,2-dihydrophthalazin-6-yl)-1-methyl-1H-pyrazol-5-yl)-3-(difluoromethyl)-1-naphthonitrile], the IC50 was determined as 5250 nM. The same measure, in the same setting: the result for `Cn1ncc(-c2ccc3c(=O)[nH]nc(CN)c3c2)c1-c1c(C(F)F)cc2ccccc2c1C#N` (single isomer, unassigned) [Example 16-130, (M)-2-(4-(4-(aminomethyl)-1-oxo-1,2-dihydrophthalazin-6-yl)-1-methyl-1H-pyrazol-5-yl)-3-(difluoromethyl)-1-naphthonitrile] reads 92 nM; that for `N#Cc1ccccc1-n1c(-c2ccc3c(=O)[nH]nc(CN)c3c2)cnc1CO` [Example 4-194, 2-(5-(4-(aminomethyl)-1-oxo-1,2-dihydrophthalazin-6-yl)-2-(hydroxymethyl)-1H-imidazol-1-yl)benzonitrile], 3820 nM; that for `Cn1ncc(-c2ccc3c(=O)[nH]nc(CN)c3c2)c1-c1ccc2n1C(=O)CCC2` [Example 4-278, 4-(aminomethyl)-6-(1-methyl-5-(5-oxo-5,6,7,8-tetrahydroindolizin-3-yl)-1H-pyrazol-4-yl)phthalazin-1(2H)-one], 1000 nM. Take `Cc1ncc(-c2ccc3c(=O)[nH]nc(CN)c3c2)n1-c1sc2ccccc2c1C#N` [Example 4-288, 2-(5-(4-(aminomethyl)-1-oxo-1,2-dihydrophthalazin-6-yl)-2-methyl-1H-imidazol-1-yl)benzo[b]thiophene-3-carbonitrile]: the IC50 was found to be 1480 nM. On the same count and under the same terms, the value for `Cn1ncc(-c2ccc3c(=O)[nH]nc(CN)c3c2)c1N1CCCCC1C#N` (stereo not drawn) [Example 4-289, 1-(4-(4-(aminomethyl)-1-oxo-1,2-dihydrophthalazin-6-yl)-1-methyl-1H-pyrazol-5-yl)piperidine-2-carbonitrile] was 4080 nM. The same measure, in the same setting: the value for `Cn1ncc(-c2ccc3c(=O)[nH]nc(CN)c3c2)c1N1CCCC1C#N` (stereo not drawn) [Example 4-290, 1-(4-(4-(aminomethyl)-1-oxo-1,2-dihydrophthalazin-6-yl)-1-methyl-1H-pyrazol-5-yl)pyrrolidine-2-carbonitrile] was 168 nM; that for `Cn1nnc(-c2ccc3c(=O)[nH]nc(CN)c3c2)c1-c1sc2ccccc2c1C#N` [Example 4-291, 2-(4-(4-(aminomethyl)-1-oxo-1,2-dihydrophthalazin-6-yl)-1-methy1-1H-1,2,3-triazol-5-yl)benzo[b]thiophene-3-carbonitrile] was 737 nM. The same measure, in the same setting: the value for `Cn1ncc(-c2ccc3c(=O)[nH]nc([C@H](N)C(F)F)c3c2)c1-c1ccc2ccccc2c1C#N` [Example 9-6, 2-[4-[4-[(1S)-1-amino-2,2-difluoro-ethyl]-1-oxo-2H-phthalazin-6-yl]-2-methyl-pyrazol-3-yl]naphthalene-1-carbonitrile] was over 10000 nM; that for `Cn1ncc(-c2cc(C(=O)C(F)F)c3c(=O)[nH]nc(CN)c3c2)c1-c1sc2ccccc2c1C#N` [Example 15-9, 2-(4-(4-(aminomethyl)-8-(2,2-difluoro-acetyl)-1-oxo-1,2-dihydrophthalazin-6-yl)--methyl-1H-pyrazol-5-yl)benzo[b]-thiophene-3-carbonitrile] was 1270 nM; that for `Cn1ncc(-c2cnc3c(=O)[nH]nc(CN)c3c2)c1-c1sc2ccccc2c1C#N` [Example 17-4, 2-(4-(5-(aminomethyl)-8-oxo-7,8-dihydropyrido[2,3-d]pyridazin-3-yl)-1-methyl-1H-pyrazol-5-yl)benzo[b]thiophene-3-carbonitrile] was 1310 nM. Turning to `COc1nnc(CN)c2cc(-c3cnn(C)c3-c3sc4ccccc4c3C#N)ccc12` [Example 17-6], the IC50 came to 7510 nM. On the same count and under the same terms, the result for `Cn1ncc(-c2cc3c(CN)n[nH]c(=O)c3s2)c1-c1ccc2ccccc2c1C#N` [Example 17-7, 2-(4-(4-(aminomethyl)-7-oxo-6,7-dihydrothieno[2,3-d]pyridazin-2-yl)-1-methyl-1H-pyrazol-5-yl)-1-naphthonitrile] reads 2310 nM; that for `C[C@@H](N)c1n[nH]c(=O)c2ccc(-c3cnn(C)c3-c3ccc4ccccc4c3C#N)nc12` [Example 20-1], 1270 nM; that for `C[C@H](N)c1n[nH]c(=O)c2ccc(-c3cnn(C)c3-c3ccc4ccccc4c3C#N)nc12` [Example 20-2], 200 nM. On the same count and under the same terms, the value for `Cn1ncc(-c2ccc3c(c2)C(CN)NC3=O)c1-c1sc2ccccc2c1C#N` (stereo not drawn) [Example 20-4, 2-(4-(3-(aminomethyl)-1-oxoisoindolin-5-yl)-1-methyl-1H-pyrazol-5-yl)benzo[b]thiophene-3-carbonitrile] was 1030 nM; that for `Cn1ncc(-c2ccc3c(c2)C(CCN)NC3=O)c1-c1sc2ccccc2c1C#N` (stereo not drawn) [Example 20-5, 2-[4-[3-(2-aminoethyl)-1-oxo-isoindolin-5-yl]-2-methyl-pyrazol-3-yl]benzothiophene-3-carbonitrile] was 635 nM. The same measure, in the same setting: the value for `Cc1ncn(-c2ccc3c(=O)[nH]nc(CN)c3c2)c1-c1sc2ccccc2c1C#N` [Example 20-6, 2-[3-[4-(aminomethyl)-1-oxo-2H-phthalazin-6-yl]-5-methyl-imidazol-4-yl]benzothiophene-3-carbonitrile] was 2250 nM. For `Cn1ncc(-c2ccc3c(c2)C(C)(N)CNC3=O)c1-c1sc2ccccc2c1C#N` (stereo not drawn) [Example 20-7, 2-(4-(4-amino-4-methyl-1-oxo-1,2,3,4-tetrahydroisoquinolin-6-yl)-1-methyl-1H-pyrazol-5-yl)benzo[b]thiophene-3-carbonitrile], the IC50 was over 10000 nM.

Staying with this experiment, now noted: in the absence of MTA, read-out: IC50.
With `Cn1ncc(-c2ccc3c(=O)[nH]nc(CN)c3c2)c1-c1ccccc1C#N` [Example 4-100, 2-(4-(4-(aminomethyl)-1-oxo-1,2-dihydrophthalazin-6-yl)-1-methyl-1H-pyrazol-5-yl)benzonitrile], the IC50 was over 10000 nM.

The next experiment relates to HCT116 homozygous MTAP knockout cells. Put plainly: Proliferation assay (CellTiter-Glo, 10 days) in HCT116 homozygous MTAP knockout cells. The experiment is classed as cell-based. Particulars: CellTiter-Glo after 10 days of treatment, read-out: Proliferation IC50 (nM) HCT116 MTAP_KO. As to the method:
HCT116 cells were genetically engineered to knock out the function of both MTAP alleles using a CRISPR/Cas9 system and an sgRNA targeting the MTAP gene. Following Cas9/MTAP sgRNA transduction, clones were screened to confirm that each allele of the MTAP gene had been inactivated (i.e., homozygous MTAP knock out) creating an MTAP-deficient cell.
Control samples were analyzed in parallel.
Briefly, on Day 0, 250 HCT116 parental or HCT116 homozygous MTAP knockout cell were seeded in 96 well plates in McCoy's 5A supplemented with […] fetal bovine serum and pen/strep and the cells were incubated overnight at 37° C. plus 5% CO2.
The following day, cells were treated with DMSO vehicle control or a dose response of PRMT5 inhibitors and incubated at 37 C plus 5% CO2 for five days. On Day 6, the cells were trypsinized and split 1:10 into new 96-well plates with fresh medium containing the same concentration of PRMT5 inhibitor and incubated for an additional 5 days at 37° C. plus 5% CO^2.
On Day 11, the viability of the cells was measured using a CTG assay kit (CellTiter-Glo; Promega cat.no G7573) in accordance with the manufacturer's instructions. The IC50 values for each compound after 10 days of treatment were calculated using GraphPad PRISM software.
(In general: Cellular ATP, detected with luciferase, serves as a proxy for viable cell number.)
On to `Cc1c(F)c(-c2c(-c3ccc4c(=O)[nH]nc(CN)c4c3)cnn2C)c(C#N)c2cc(Cl)cnc12` (atropisomer, axis not shown; (M)) [Example 16-34, (M)-6-[4-[4-(aminomethyl)-1-oxo-2H-phthalazin-6-yl]-2-methyl-pyrazol-3-yl]-3-chloro-7-fluoro-8-methyl-quinoline-5-carbonitrile], for which the IC50 was 20 nM.

The values above are taken from patent US20240208912A1 (Mirati Therapeutics, Inc., priority 2021, published 2024).
